These results are taken from patent US6583180B2, “Glucocorticoid receptor modulators” (Abbott Laboratories, priority 2001, dated 2003).

Experiment [1] has as its target T1, progesterone receptor (PR) (Homo sapiens, UniProt P06401).
T1 sequence (P06401 1-933): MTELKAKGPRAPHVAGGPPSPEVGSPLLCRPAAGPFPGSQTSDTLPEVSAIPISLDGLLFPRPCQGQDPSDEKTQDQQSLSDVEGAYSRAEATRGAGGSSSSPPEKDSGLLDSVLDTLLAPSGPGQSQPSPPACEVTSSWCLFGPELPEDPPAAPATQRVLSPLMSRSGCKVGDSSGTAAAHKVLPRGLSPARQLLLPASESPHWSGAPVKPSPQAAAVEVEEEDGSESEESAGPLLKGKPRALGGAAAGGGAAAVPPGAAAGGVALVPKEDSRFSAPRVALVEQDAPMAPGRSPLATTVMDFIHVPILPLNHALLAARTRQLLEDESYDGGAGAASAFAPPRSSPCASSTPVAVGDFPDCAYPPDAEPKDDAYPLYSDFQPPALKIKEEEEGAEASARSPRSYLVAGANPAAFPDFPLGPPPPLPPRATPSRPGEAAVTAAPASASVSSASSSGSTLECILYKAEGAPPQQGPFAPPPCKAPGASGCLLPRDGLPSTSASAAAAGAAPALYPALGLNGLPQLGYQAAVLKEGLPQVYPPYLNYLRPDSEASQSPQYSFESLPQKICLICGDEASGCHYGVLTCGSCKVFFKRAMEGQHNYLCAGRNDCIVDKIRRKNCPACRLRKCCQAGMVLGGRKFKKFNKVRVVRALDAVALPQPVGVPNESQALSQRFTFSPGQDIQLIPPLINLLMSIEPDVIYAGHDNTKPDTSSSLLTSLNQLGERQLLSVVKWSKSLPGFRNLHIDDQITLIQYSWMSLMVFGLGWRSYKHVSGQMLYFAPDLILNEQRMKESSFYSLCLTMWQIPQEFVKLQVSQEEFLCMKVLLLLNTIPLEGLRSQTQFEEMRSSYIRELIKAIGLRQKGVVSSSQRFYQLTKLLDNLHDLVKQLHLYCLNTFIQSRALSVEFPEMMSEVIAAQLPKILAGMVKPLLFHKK
Kind of experiment: Radioligand binding assay for progesterone receptor (similar protocol).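 Further: radioligand binding measured with cytosol preparations containing the human progesterone receptor.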
Excerpt: Methods for Radiolipand Binding Studies with Human Glucocorticoid and Progesterone Receptor Cytosol

Experiment [2] deals with T2, Human glucocorticoid receptors (Homo sapiens, UniProt P04150).
T2 construct: made in house; host or cells: Sf9 insect cells, recombinant baculovirus (BAC-TO-BAC)
T2 sequence (P04150 1-777): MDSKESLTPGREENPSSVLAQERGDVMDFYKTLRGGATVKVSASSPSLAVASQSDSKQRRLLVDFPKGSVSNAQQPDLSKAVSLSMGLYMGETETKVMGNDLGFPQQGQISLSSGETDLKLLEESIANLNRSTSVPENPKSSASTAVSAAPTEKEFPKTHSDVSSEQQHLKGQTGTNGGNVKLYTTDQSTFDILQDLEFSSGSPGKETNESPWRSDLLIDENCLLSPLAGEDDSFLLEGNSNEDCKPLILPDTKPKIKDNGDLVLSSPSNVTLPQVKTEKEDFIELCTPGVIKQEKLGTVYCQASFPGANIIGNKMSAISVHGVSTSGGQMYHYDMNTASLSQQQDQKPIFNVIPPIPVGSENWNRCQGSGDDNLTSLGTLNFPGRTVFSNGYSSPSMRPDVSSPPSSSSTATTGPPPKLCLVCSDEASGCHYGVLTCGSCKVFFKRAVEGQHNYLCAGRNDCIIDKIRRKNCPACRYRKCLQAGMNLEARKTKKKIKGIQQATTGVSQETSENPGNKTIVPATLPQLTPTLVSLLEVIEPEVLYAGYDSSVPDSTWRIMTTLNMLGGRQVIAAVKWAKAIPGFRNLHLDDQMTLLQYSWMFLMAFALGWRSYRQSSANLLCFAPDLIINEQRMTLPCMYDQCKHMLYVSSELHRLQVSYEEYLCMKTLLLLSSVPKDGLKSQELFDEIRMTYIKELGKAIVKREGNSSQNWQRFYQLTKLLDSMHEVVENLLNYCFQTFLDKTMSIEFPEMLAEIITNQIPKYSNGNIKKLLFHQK
Nature of the experiment: Radioligand filter binding assay, displacement of 3[H]-dexamethasone from hGR. The conditions noted are these: read-out: GR Binding (% Inhibition at 1.7 μM). In a few lines:
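Recombinant hGR extract from baculovirus-infected Sf9 cells (final ~1 nM receptor) incubated with ³H-dexamethasone and test compound dilutions in duplicate, EDTA/phosphate pH 8 buffer with MTG, overnight (15-20 h) at +4° C. Bound label collected on PEI-treated GF/B filters and scintillation-counted; IC50 from four-parameter fit of corrected cpm.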

Experiment [3] deals with obese diabetic db/db transgenic mice. The conditions noted are these: Friedman et al. 1997; cited from earlier work.

Molecule `Cc1c(NS(C)(=O)=O)cccc1N(Cc1ccc(Oc2ccc(Cl)c(O)c2)cc1)Cc1ccc(F)cc1F` [Example 322, N-(3-((4-(4-chloro-3-hydroxyphenoxy)benzyl)(2,4-difluorobenzyl)amino)-2-methylphenyl)methanesulfonamide] showed an IC50 in experiment [1] of 360 nM. For the same molecule, the inhibition at 1.7 µM in experiment [2] was 98.5%.

Turning to `Cc1c(NS(C)(=O)=O)cccc1N(Cc1ccc(Oc2ccc(Br)c(OCC(=O)O)c2)cc1)Cc1ccc(F)cc1F` [Example 323, (2-bromo-5-(4-(((2,4-difluorobenzyl)(2-methyl-3-((methylsulfonyl)amino)phenyl)amino)methyl)phenoxy)phenoxy)acetic acid], the IC50 in experiment [1] amounted to 66.6 nM. In experiment [2], the inhibition at 1.7 µM stood at 98.2%.

In the case of `Cc1c(NS(C)(=O)=O)cccc1N(Cc1ccc(Oc2cccc(OCCCC(=O)NCCC(=O)O)c2)cc1)Cc1ccc(F)cc1F` [Example 324, N-(4-(3-(4-(((2,4-difluorobenzyl)(2-methyl-3-((methylsulfonyl)amino)phenyl)amino)methyl)phenoxy)phenoxy)butanoyl)-beta-alanine], in experiment [1], the IC50 was found to be 123 nM. Moreover, the inhibition at 1.7 µM in experiment [2] stood at 97.4%.

`Cc1c(NS(C)(=O)=O)cccc1N(Cc1ccc(Oc2cccc(OCCCC(=O)NCCCC(=O)O)c2)cc1)Cc1ccc(F)cc1F` [Example 325, 4-((4-(3-(4-(((2,4-difluorobenzyl)(2-methyl-3-((methylsulfonyl)amino)phenyl)amino)methyl)phenoxy)phenoxy)butanoyl)amino)butanoic acid] came in with an IC50 in experiment [1] of 122 nM. In addition, in experiment [2], the inhibition at 1.7 µM worked out at 97.7%. For `Cc1c(NS(C)(=O)=O)cccc1N(Cc1ccc(Oc2cccc(OCCCC(=O)N(C)CC(=O)O)c2)cc1)Cc1ccc(F)cc1F` [Example 326, N-(4-(3-(4-(((2,4-difluorobenzyl)(2-methyl-3-((methylsulfonyl)amino)phenyl)amino)methyl)phenoxy)phenoxy)butanoyl)-N-methylglycine], the IC50 in experiment [1] was 183 nM. The inhibition at 1.7 µM in experiment [2] worked out at 97%.

`CC#C[C@]1(O)CC[C@H]2[C@@H]3CCC4=CC(=O)CCC4=C3[C@@H](c3ccc(N(C)C)cc3)C[C@@]21C` [Mifepristone]: in experiment [3], the “reduction of plasma glucose levels” value was 50%.
